Measurements taken from patent EP0112669A2, “Phenethylamine derivatives and intermediates therefor” (AMERICAN HOME PRODUCTS CORPORATION, priority 1982, dated 1984).
Read-outs that look alike come from different tables or passages of the source.

What was measured:
muscarinic receptor = conditions: read-out: Ki (^3H-QNB binding)
[1] = system: reserpine-induced hypothermia; test: Antagonism of reserpine-induced hypothermia; assay type: in vivo, mice; conditions: for minimal effective dose: Mus musculus, read-out: minimum effective dose (M.E.D.), antagonism of reserpine-induced hypothermia; for potency relative to Compound A in reversal of reserpine-induced hypothermia: compared with Compound A
Procedure: 37, 795-797 (1981); and antagonize reserpine induced hypothermia when tested in accordance with the procedure of Askew, Life Sci. 1, 725-730 (1963).
All mice received 5mg/kg reserpine s.c. 18 h prior to test compound.

[2] = molecular target: ^3H-imipramine binding in brain tissue
[3] = system: carbachol-stimulated contraction of the guinea-pig ileum; test: Inhibition of carbachol-stimulated contraction of guinea-pig ileum
[4] = molecular target: synaptosomal uptake of norepinephrine (^3H-NE); test: Inhibition of synaptosomal NE uptake
[5] = molecular target: T1, synaptosomal uptake of serotonin (14C-5-HT) (Homo sapiens, UniProt P31645); test: biochemical
T1 construct: from tissue

[6] = unit inferred, read-out: inhibition constants (vs. ^3H-imipramine)
[7] = ip, mice, n = 8 per group, 5mg/kg reserpine s.c. 18 h prior to test compound
[8] = read-out: inhibition constant (Ki) vs. ^3H-imipramine

synaptosomal uptake of norepinephrine (^3H-NE), sequence (P23975 whole entry): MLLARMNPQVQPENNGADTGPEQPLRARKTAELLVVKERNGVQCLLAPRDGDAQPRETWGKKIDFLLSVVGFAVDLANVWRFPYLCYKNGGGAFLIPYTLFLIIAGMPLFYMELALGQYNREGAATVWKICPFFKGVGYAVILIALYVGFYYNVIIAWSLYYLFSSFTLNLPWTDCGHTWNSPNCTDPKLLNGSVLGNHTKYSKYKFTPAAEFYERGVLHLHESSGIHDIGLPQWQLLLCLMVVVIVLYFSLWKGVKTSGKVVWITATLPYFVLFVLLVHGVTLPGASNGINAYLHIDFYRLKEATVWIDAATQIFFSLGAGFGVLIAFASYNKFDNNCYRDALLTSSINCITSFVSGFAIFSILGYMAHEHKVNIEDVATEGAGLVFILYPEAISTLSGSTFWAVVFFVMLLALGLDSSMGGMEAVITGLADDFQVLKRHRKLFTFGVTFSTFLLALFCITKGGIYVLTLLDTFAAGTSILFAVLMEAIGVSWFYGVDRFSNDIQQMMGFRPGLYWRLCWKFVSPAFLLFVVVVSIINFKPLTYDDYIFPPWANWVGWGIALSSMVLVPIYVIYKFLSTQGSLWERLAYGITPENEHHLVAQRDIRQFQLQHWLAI
T1 sequence (P31645 whole entry): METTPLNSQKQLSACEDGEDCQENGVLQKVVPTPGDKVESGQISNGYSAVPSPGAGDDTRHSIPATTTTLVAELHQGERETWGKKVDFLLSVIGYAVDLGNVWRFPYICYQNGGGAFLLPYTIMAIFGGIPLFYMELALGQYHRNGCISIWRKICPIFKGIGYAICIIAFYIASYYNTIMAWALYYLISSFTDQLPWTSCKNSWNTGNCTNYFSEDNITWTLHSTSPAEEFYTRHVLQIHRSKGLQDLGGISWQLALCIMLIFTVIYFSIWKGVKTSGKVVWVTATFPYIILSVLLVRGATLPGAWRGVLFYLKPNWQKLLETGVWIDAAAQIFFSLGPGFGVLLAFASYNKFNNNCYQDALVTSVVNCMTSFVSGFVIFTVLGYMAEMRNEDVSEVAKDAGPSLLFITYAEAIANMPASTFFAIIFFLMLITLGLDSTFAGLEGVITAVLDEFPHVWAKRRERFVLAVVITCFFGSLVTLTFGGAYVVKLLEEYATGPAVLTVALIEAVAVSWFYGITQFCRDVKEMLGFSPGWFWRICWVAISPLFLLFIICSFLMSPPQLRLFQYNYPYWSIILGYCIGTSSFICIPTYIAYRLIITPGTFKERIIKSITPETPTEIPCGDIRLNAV

Structure (SMILES) | Ki [2, 6] | minimal effective dose [1, 7] | potency relative to Compound A in reversal of reserpine-induced hypothermia ([1]; mice) | IC50 [4] | other results
CNCCCN1c2ccccc2CCc2ccccc21 [DMI, desmethyl- imipramine, reference compound] | – | – | – | – | Ki (muscarinic receptor): […]; minimal effective dose ([1]; ip): 0.4 mg/kg
CN(C)CC(c1ccc(Br)cc1)C1(O)CCCCC1 (centres unmarked) [Compound D, 1-[1-(4-bromophenyl)-2-(dimethylamino)ethyl]-cyclohexanol] | 62 nM | 3 mg/kg | approximately three times as potent | – | –
CN(C)CCCN1c2ccccc2CCc2ccccc21 [Imipramine, reference compound] | – | – | – | – | Ki (muscarinic receptor): 37 nM; Kb ([3]; Cavia porcellus, read-out: KB against carbachol-stimulated contraction of the guinea-pig ileum): ~100 nM
CN(C)CC(c1ccc(Cl)c(Cl)c1)C1(O)CCCCC1 (centres unmarked) [Compound G, 1-[1-(3,4-dichlorophenyl)-2-(dimethylamino)ethyl]-cyclohexanol] | 37 nM | 3 mg/kg | approximately three times as potent | 70 nM | –
CN(C)CC(c1ccc(Cl)cc1)C1(O)CCCCC1 (centres unmarked) [Compound C, 1-[1-(4-chlorophenyl)-2-(dimethylamino)ethyl]-cyclohexanol] | – | 10 mg/kg | approximately equipotent | 330 nM | Ki [2, 8]: 100 nM; IC50 [5]: 250 nM
COc1ccc(C(CN(C)C)C2(O)CCCCC2)cc1 (racemic) [Compound A, 1-[(2-dimethylamino)-1-(4-methoxyphenyl)ethyl]-cyclohexanol] | – | – | – | – | activity against carbachol-stimulated contraction of the guinea-pig ileum ([3]; at 1 µM): inactive; minimal effective dose ([1]; ip): 10 mg/kg; minimal effective dose ([1]; po): 10 mg/kg
CN(C)CC(c1cccc(Cl)c1)C1(O)CCCCC1 (centres unmarked) [Compound E, 1-[1-(3-chlorophenyl)-2-(dimethylamino)ethyl]-cyclohexanol] | – | 1 mg/kg | – | – | Ki ([2]; read-out: inhibition constants (vs. ^3H-imipramine)): 130 nM
CN(C)CC(c1cccc(Br)c1)C1(O)CCCCC1 (centres unmarked) [Compound F, 1-[1-(3-bromophenyl)-2-(dimethylamino)ethyl]-cyclohexanol] | 52 nM | 1 mg/kg | approximately ten times as potent | – | –
COc1ccc(C2CN(C)COC23CCCCC3)cc1 (stereo not drawn) [Compound B, 5-(4-methoxyphenyl)-3-methyl-3-aza-l-oxas^piro(5.5) undecane] | – | 30 mg/kg | less potent | 4700 nM | Ki [2, 8]: 350 nM; IC50 [5]: 2900 nM
